The subject of assay [1] is B16. The assay can be described thus: Compound was tested in vitro inhibition of proliferation against B16 melanoma after a 40h incubation. It is filed as functional, Mus musculus.
The nature of assay [2]: In vitro concentration in […] which reduces the protein concentration by 50% in a microtubule assembly assay expressed as ED50/ED50 taxol. The format is functional.
Assay [3] relates to B16. In words: Compound was tested in vitro inhibition of proliferation against B16 melanoma after a 40h incubation relative to that of taxol (Taxol=1). It is filed as functional, Mus musculus.
The nature of assay [4]: In vitro concentration in […] which reduces the protein concentration by 50% in a microtubule assembly assay, relative to taxol (1) and expressed as ED50/ED50 taxol. The format is functional.

The text below walks through data of ChEMBL document CHEMBL1127938, “The first synthesis of a C-9 carbonyl modified baccatin III derivative and its conversion to novel taxol and taxotere analogues” (1994).

Each structure is given as a SMILES string.

Take `CC(=O)O[C@H]1C(=O)[C@@]2(C)[C@H]([C@H](OC(=O)c3ccccc3)[C@]3(O)C[C@H](OC(=O)[C@H](O)[C@@H](NC(=O)c4ccccc4)c4ccccc4)C(C)=C1C3(C)C)[C@]1(OC(C)=O)CO[C@@H]1C[C@@H]2O` [PACLITAXEL]: the ED50 ratio (in the assay with B16 [1]; in assay [2]) was 1 throughout.
Take `CC(=O)O[C@@]12CO[C@@H]1C[C@H](O)[C@@]1(C)c3oc(=O)oc3C3=C(C)[C@@H](OC(=O)[C@H](O)[C@@H](NC(=O)c4ccccc4)c4ccccc4)C[C@@](O)([C@@H](OC(=O)c4ccccc4)C12)C3(C)C` (stereo partly specified): the ED50 ratio in the assay with B16 [3] amounted to 34.5; in assay [4] it was 2.4.
The matching figures for `CC(=O)O[C@@]12CO[C@@H]1C[C@H](O)[C@@]1(C)c3oc(=O)oc3C3=C(C)[C@@H](OC(=O)[C@H](O)[C@@H](NC(=O)OC(C)(C)C)c4ccccc4)C[C@@](O)([C@@H](OC(=O)c4ccccc4)C12)C3(C)C` (stereo partly specified): 16.4 and 0.5.
